Test results reported in PMC5394417, “Investigating the molecular mechanism of positive and negative allosteric modulators in the calcium-sensing receptor dimer” (Scientific Reports, 2017).

Target: T1, HA-D190A CaSR mutant (Rattus norvegicus, UniProt P48442, D190A)
T1 construct: mGluR5 signal peptide (N); expressed in transfected cells; host or cells: HEK293T
T1 sequence (P48442 20-1079 D190A): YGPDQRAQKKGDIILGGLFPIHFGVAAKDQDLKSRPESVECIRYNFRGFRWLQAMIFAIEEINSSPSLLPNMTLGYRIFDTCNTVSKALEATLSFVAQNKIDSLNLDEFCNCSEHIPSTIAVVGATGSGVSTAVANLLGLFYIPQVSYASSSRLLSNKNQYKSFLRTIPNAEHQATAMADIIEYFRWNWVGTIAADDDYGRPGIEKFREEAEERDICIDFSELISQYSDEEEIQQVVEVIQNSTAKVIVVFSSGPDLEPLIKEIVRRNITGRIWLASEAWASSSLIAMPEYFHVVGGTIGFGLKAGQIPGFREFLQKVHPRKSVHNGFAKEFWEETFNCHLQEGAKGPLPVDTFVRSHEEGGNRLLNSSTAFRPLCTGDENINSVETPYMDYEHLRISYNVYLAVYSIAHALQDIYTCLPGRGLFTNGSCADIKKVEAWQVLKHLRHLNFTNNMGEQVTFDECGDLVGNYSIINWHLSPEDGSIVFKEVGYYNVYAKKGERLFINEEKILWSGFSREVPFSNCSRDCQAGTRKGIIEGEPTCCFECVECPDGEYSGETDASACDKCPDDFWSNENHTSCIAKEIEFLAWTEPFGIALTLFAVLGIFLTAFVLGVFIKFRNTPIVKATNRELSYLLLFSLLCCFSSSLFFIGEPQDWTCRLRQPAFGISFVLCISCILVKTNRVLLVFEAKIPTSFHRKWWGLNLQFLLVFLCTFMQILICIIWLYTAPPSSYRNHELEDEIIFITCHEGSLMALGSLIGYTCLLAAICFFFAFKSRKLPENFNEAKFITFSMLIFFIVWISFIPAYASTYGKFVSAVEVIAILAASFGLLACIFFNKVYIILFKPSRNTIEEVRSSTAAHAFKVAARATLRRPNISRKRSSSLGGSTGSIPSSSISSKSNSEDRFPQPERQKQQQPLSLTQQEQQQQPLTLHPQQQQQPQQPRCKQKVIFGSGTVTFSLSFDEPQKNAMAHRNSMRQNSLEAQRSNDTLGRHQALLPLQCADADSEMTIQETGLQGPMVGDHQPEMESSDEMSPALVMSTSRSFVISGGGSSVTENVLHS
Experiment: IP-One assay, HEK293T transiently transfected
Assay type: cell-based

EC50 (Ca^2+ alone): 17.8 mM | Hill coefficient ± S.E.M. (Ca^2+ alone): 3.77 ± 0.39 | pEC50 ± S.E.M. (Ca^2+ alone): 1.75 ± 0.01 | Max ± S.E.M. (normalized to maximum response of WT CaSR): 110 ± 11%
Structure (SMILES): [Ca+2] [Ca^2+]
